# Results: patent publication US20070142449A1, “Angiogenesis inhibitors” (priority 2002, published 2007)
# Where two headings read alike, the source gives them in different places.
# Assays:
# HUVECs = experiment: HUVEC growth inhibition assay (crystal violet); type: cell-based; conditions: Homo sapiens; for activity at 30 µM: 72 hours; for inhibition at 30 µM: read-out: Inhibition of HUVECs growth compared with the control
# Procedure: These compounds were tested in a growth inhibition assay using HUVECs as follows. 5×10^3 Human umbilical vein endothelial cells (HUVECs) were seeded in two 96-well plates (Clonetic # CC3162). Each well contains 100 μl of endothelial cell basal medium-2. After 24 hr, 100 μl endothelial cell growth medium-2 containing a test compound was added to each well of the two plates. The cells in the first plate were immediately stained with 0.5% crystal violet in 20% methanol for 10 minutes, rinsed with water, and air-dried. The cells in the second plate were incubated for 72 hours at 37° C. and then stained in the same manner. Each well in the first and second plates was eluted with 1:1 ethanol and 0.1 M sodium citrate, and absorbance of the resulting solution was measured at 540 nm with an ELISA reader.
# Basal and control experiments were also conducted according to the above procedure, except that 100 μl endothelial basal medium-2 and 100 μl endothelial growth medium-2 were added to the second plates, respectively, instead of endothelial cell growth medium-2 containing a test compound.
# HUVECs growth in each well was compared with that of the basal experiment according to the following equation: % basal=(Asecond plate−Afirst plate)/(Asecond plate of basal−Afirst plate of basal)×100%
# where Asecond plate is the absorbance of the solution in the second plate; Afirst plate is the absorbance of the solution in the first plate; Asecond plate of basal is the absorbance of the solution in the second plate of the basal; and Afirst plate of basal is the absorbance of the solution in the first plate of the basal.
# [1] = system: VEGF-induced cell proliferation of HUVECs; experiment: Inhibition of VEGF-induced DNA synthesis ([3H]thymidine incorporation) in HUVECs; type: cell-based; conditions: Homo sapiens, HUVEC
# Procedure: (§1) Human umbilical vein endothelial cells (HUVECs) were incubated in the absence of Compound 1 (basal and control) or presence of Compound 1 (with a concentration of […], 0.03 TM, 0.1 TM, 0.3 TM, or 1 TM). Vascular endothelial growth factor (VEGF) or basic fibroblast growth factor (bFGF) was added (except for basal) to induce DNA synthesis, which was detected based on [^3H]thymidine incorporation.
# [2] = system: bFGF-induced cell proliferation of HUVECs; experiment: Inhibition of bFGF-induced DNA synthesis ([3H]thymidine incorporation) in HUVECs; type: cell-based; conditions: Homo sapiens, HUVEC
# Procedure: as §1
# [3] = system: VEGF-induced tube formation of HUVECs; experiment: Inhibition of VEGF-induced tube formation of HUVECs on Matrigel; type: cell-based, Human; conditions: 10 TM compound, VEGF 10 ng/mL, Matrigel 10 mg/mL
# Procedure: (§2) HUVECs were cultured onto a chamber slide, which was pre-coated with Matrigel (10 mg/mL). Cells were treated without Compound 1 (control) or with Compound 1 (10 TM). VEGF (10 ng/mL) or bFGF (10 ng/mL) was added to induce tube formation. All photos were taken at 100× magnification.
# [4] = system: bFGF-induced tube formation of HUVECs; experiment: Inhibition of bFGF-induced tube formation of HUVECs on Matrigel; type: cell-based, Human; conditions: 10 TM compound, bFGF 10 ng/mL, Matrigel 10 mg/mL
# Procedure: as §2
# [5] = system: VEGF-induced angiogenic effect; experiment: Matrigel plug angiogenesis in nude mice, VEGF; type: in vivo
# Procedure: (§3) Nude mice were subcutaneously injected with a Matrigel plug containing 150 ng/mL VEGF or bFGF. Vehicle or Compound 1 was administrated to the mice orally (1 mg/kg/day, 3 mg/kg/day, 10 mg/kg/day, 30 mg/kg/day, or 100 mg/kg/day) for seven days. The angiogenic response was monitored visually through the transparent skin. […] The plugs were removed, fixed in 4% formaldehyde, embedded in paraffin, sectioned at 5-Tm thick for histological analysis, and blood vessel growth quantified by hematoxylin-eosin staining. All photos were taken at 40× magnification.
# (§4) In a quantitative analysis of angiogenic effect, nude mice were treated as described above, and the plugs were removed and dissolved. Hemoglobin concentrations were measured using a hemoglobin detection kit (Sigma Chem. Co.) as indices of angiogenesis. Means±S.E. (n=3) were presented (see FIG. 1). Symbol “***” represents P<0.001 that are compared with the control.
# [6] = system: bFGF-induced angiogenic effect; experiment: Matrigel plug angiogenesis in nude mice, bFGF; type: in vivo
# Procedure: as §3, §4
# A549 lung tumor cells = experiment: Anti-tumor activity, survival of nude mice with A549 lung tumor cells in the pleural space; type: in vivo; conditions: oral 10 mg/kg/day, 10^6 A549 cells in pleural space, FIG. 2
# Procedure: 10^6 A549 lung tumor cells were introduced into the pleural space of nude mice. Compound 1 was administrated to the mice orally (10 mg/kg/day). The survival rates of Compound 1-treated mice and control mice were compared (FIG. 2). The life span (i.e., the medium survival time) of Compound 1-treated mice was about 1.8 times that of control mice, as analyzed by a % T/C value [(median survival time of treatment/median survival time of control)×100].
# [7] = read-out: HUVEC growth, % of Basal
# [8] = read-out: HUVEC growth, % of Control
Compound,activity at 30 µM (HUVECs; [7]) [%],activity at 30 µM (HUVECs; [8]) [%],inhibition at 30 µM (HUVECs) [%],further results
COC(=O)c1ccc(-c2n[nH]c3ccccc23)o1 [Compound 2],193 ± 11.1,85 ± 4.9,15,
OCc1ccc(-c2n[nH]c3ccccc23)o1 [Compound 3],178 ± 14.7,78.4 ± 6.5,22 to 40,
OCc1ccc(-c2nn(Cc3ccccc3)c3cc(F)ccc23)o1 [Compound 6],83.9 ± 4,37 ± 1.8,60 to 76,
Cc1ccc2c(-c3ccc(CO)o3)nn(Cc3ccccc3)c2c1 [Compound 7],53.9 ± 7.5,23.7 ± 3.3,60 to 76,
O=C(O)c1cccc(-c2nn(Cc3ccccc3)c3ccccc23)c1 [Compound 9],172 ± 14.4,75.8 ± 6.3,22 to 40,
"OCc1ccc(-c2nn(Cc3ccccc3)c3ccccc23)o1 [Compound 1, 1-benzyl-3-(5′-hydroxymethyl-2′-furyl)indazole]",92.2 ± 1.8,40.6 ± 0.8,60 to 76,"IC50 [1]: 90 nM; IC50 [2]: 140 nM; Inhibition of VEGF-induced formation of networks of elongated endothelial cells [3]: inhibited; Inhibition of bFGF-induced formation of networks of elongated endothelial cells [4]: inhibited; VEGF-induced angiogenic effect, blood vessel growth in Matrigel plug (histology) ([5]; oral 1-100 mg/kg/day for seven days, plug with 150 ng/mL VEGF): effectively inhibited; VEGF-induced angiogenic effect, hemoglobin concentration of plug ([5]; oral, seven days, n=3, FIG. 1): effectively inhibited; bFGF-induced angiogenic effect, blood vessel growth in Matrigel plug (histology) ([6]; oral 1-100 mg/kg/day for seven days, plug with 150 ng/mL bFGF): effectively inhibited; bFGF-induced angiogenic effect, hemoglobin concentration of plug ([6]; oral, seven days, n=3, FIG. 1): effectively inhibited; Life span (medium survival time) relative to control mice (A549 lung tumor cells): about 1.8 times that of control mice"
COC(=O)c1ccc(-c2nn(Cc3ccccc3)c3cc(F)ccc23)o1 [Compound 4],195 ± 6.5,85.9 ± 2.8,15,
Cc1ccc2c(-c3ccc(C(=O)O)o3)nn(Cc3ccccc3)c2c1 [Compound 8],163 ± 22.1,71.4 ± 9.7,22 to 40,
